Data taken from patent publication US11746100B2 (GLOBAL BLOOD THERAPEUTICS, INC., priority 2020, dated 2023).

What follows are compounds tested against T1, human ferroportin (Homo sapiens, UniProt Q9NP59) (assay: Biological in-vitro ferroportin internalization assay (luciferase reporter)). Details: average pEC50; stably-transfected CHO cell line expressing human ferroportin tagged to a luciferase reporter; 6 h incubation with test compound.
T1 construct: luciferase reporter (read with the Nano-Glo Luciferase Assay System); expressed in transfected cells; host or cells: CHO cells, stably transfected, expression induced with doxycycline
T1 sequence (Q9NP59 1-571): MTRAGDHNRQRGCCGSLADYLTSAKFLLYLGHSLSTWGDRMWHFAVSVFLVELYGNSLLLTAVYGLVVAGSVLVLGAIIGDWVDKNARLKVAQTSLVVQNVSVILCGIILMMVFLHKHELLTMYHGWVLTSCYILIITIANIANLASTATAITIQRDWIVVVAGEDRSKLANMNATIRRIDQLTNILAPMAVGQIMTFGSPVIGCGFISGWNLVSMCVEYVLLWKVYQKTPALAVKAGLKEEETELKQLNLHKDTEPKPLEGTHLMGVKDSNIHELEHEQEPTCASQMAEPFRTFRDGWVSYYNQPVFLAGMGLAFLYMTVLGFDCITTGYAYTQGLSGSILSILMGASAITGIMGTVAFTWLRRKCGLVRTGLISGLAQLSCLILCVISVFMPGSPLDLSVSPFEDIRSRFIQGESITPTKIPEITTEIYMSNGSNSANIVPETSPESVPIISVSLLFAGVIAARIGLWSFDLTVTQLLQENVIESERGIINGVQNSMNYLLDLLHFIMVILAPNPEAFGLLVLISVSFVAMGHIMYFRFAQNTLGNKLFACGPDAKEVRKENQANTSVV
Type: cell-based
How it was run: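 Read-out is Nano-Glo luciferase signal after 6 h compound exposure, with average pEC50 derived. Cells are a stable CHO line carrying luciferase-tagged human ferroportin, pre-loaded 24 h with ferric ammonium citrate and doxycycline-induced for 24 h.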

**Q.** Which pEC50 does the source give for `C[C@H](C(=O)NC(C)(C)C)N(C)c1nc(-c2cc3cn[nH]c3cn2)nc2c1CCC2` [Compound 183, (2R)—N-tert-butyl-2-[methyl(2-{1H-pyrazolo[3,4-c]pyridin-5-yl}-5H,6H,7H-cyclopenta[d]pyrimidin-4-yl)amino]propanamide] here?
**A.** Its pEC50 is 8.

**Q.** For `CN(CC(=O)NC(C)(C)C)c1nc(-c2cc(OC[C@@H]3CCCN3C)ccn2)nc2c1CCC2` [Compound 412, N-tert-butyl-2-{methyl[2-(4-{[(2S)-1-methylpyrrolidin-2-yl]methoxy}pyridin-2-yl)-5H,6H,7H-cyclopenta[d]pyrimidin-4-yl]amino}acetamide], which pEC50 is on record?
**A.** The pEC50 was 8.1.

**Q.** For `CCC(C)(O)COc1ccnc(-c2nc3c(c(N(C)CC(=O)NC(C)(C)C)n2)CCC3)c1` (stereo in doubt) [Compound 446, N-tert-butyl-2-[(2-{4-[(2R)-2-hydroxy-2-methylbutoxy]pyridin-2-yl}-5H,6H,7H-cyclopenta[d]pyrimidin-4-yl)(methyl)amino]acetamide], which pEC50 is on record?
**A.** The pEC50 was 8.2.

**Q.** `COc1ccnc(-c2nc3c(c(N(C)CC(=O)N[C@H](C)CO)n2)CCC3)c1` [Compound 458, N-[(2R)-1-hydroxypropan-2-yl]-2-{[2-(4-methoxypyridin-2-yl)-5H,6H,7H-cyclopenta[d]pyrimidin-4-yl](methyl)amino}acetamidede] was tested. Which pEC50 did it give?
**A.** Its pEC50 is 7.3.

**Q.** Which pEC50 does the source give for `COc1ncc(NC(=O)CN(C)c2nc(-c3cc(OC(C)(C)CO)ccn3)nc3c2CCC3)cn1` [Compound 276, 2-[(2-{4-[(1-hydroxy-2-methylpropan-2-yl)oxy]pyridin-2-yl}-5H,6H,7H-cyclopenta[d]pyrimidin-4-yl)(methyl)amino]-N-(2-methoxypyrimidin-5-yl)acetamide] here?
**A.** Its pEC50 is 7.7.

**Q.** How did the pEC50 turn out when `Cc1cncc(NC(=O)CN(C)c2nc(-c3cc4ccccc4cn3)nc3c2CCC3)c1` [Compound 235, 2-{[2-(isoquinolin-3-yl)-5H,6H,7H-cyclopenta[d]pyrimidin-4-yl](methyl)amino}-N-(5-methylpyridin-3-yl)acetamide] was run?
**A.** The pEC50 was 7.5.

**Q.** Which pEC50 does the source give for `COc1ccnc(-c2nc3c(c(N(C)CC(=O)NC4(C)CCCC4)n2)CCC3)c1` [Compound 155, 2-{[2-(4-methoxypyridin-2-yl)-5H,6H,7H-cyclopenta[d]pyrimidin-4-yl](methyl)amino}-N-(1-methylcyclopentyl)acetamide] here?
**A.** The pEC50 was 7.5.

**Q.** `CCn1cncc1-c1nc2c(c(N(C)CC(=O)NC(C)(C)C)n1)CCC2` [Compound 194, N-tert-butyl-2-{[2-(1-ethyl-1H-imidazol-5-yl)-5H,6H,7H-cyclopenta[d]pyrimidin-4-yl](methyl)amino}acetamide] was tested. Which pEC50 did it give?
**A.** The pEC50 was 5.4.

**Q.** How did the pEC50 turn out when `COc1ccnc(-c2nc3c(c(N(C)CC(=O)Nc4ccn(C)c(=O)c4)n2)CCC3)c1` [Compound 287, 2-{[2-(4-methoxypyridin-2-yl)-5H,6H,7H-cyclopenta[d]pyrimidin-4-yl](methyl)amino}-N-(1-methyl-2-oxo-1,2-dihydropyridin-4-yl)acetamide] was run?
**A.** Its pEC50 is 7.2.

**Q.** For `CN(CC(=O)NC(C)(C)C)c1cc(-c2ncccn2)nc2c1CCC2` [Compound 67, N-tert-butyl-2-{methyl[2-(pyrimidin-2-yl)-5H,6H,7H-cyclopenta[b]pyridin-4-yl]amino}acetamide], which pEC50 is on record?
**A.** The pEC50 was 6.6.

**Q.** How did the pEC50 turn out when `CCn1cnc(-c2nc3c(c(N(C)CC(=O)NC(C)(C)C)n2)CCC3)c1` [Compound 193, N-tert-butyl-2-{[2-(1-ethyl-1H-imidazol-4-yl)-5H,6H,7H-cyclopenta[d]pyrimidin-4-yl](methyl)amino}acetamide] was run?
**A.** Its pEC50 is 6.8.

**Q.** How did the pEC50 turn out when `CN(CC(=O)Nc1cccc(F)c1)c1nc(-c2cc(OCCN3CCCC3)ccn2)nc2c1CCC2` [Compound 252, N-(3-fluorophenyl)-2-[methyl(2-{4-[2-(pyrrolidin-1-yl)ethoxy]pyridin-2-yl}-5H,6H,7H-cyclopenta[d]pyrimidin-4-yl)amino]acetamide] was run?
**A.** Its pEC50 is 7.9.

**Q.** `COc1cc(-c2nc3c(c(N(C)CC(=O)NC(C)(C)C)n2)CCC3)ncc1C` [Compound 192, N-tert-butyl-2-{[2-(4-methoxy-5-methylpyridin-2-yl)-5H,6H,7H-cyclopenta[d]pyrimidin-4-yl](methyl)amino}acetamide] was tested. Which pEC50 did it give?
**A.** The pEC50 was 6.5.

**Q.** How did the pEC50 turn out when `CN(c1nc(-c2ccccn2)nc2c1CCC2)[C@@H](CO)C(=O)NC(C)(C)C` [Compound 123, (2S)—N-tert-butyl-3-hydroxy-2-{methyl[2-(pyridin-2-yl)-5H,6H,7H-cyclopenta[d]pyrimidin-4-yl]amino}propanamide] was run?
**A.** The pEC50 was 7.2.

**Q.** `C[C@H](O)COc1ccnc(-c2nc3c(c(N(C)CC(=O)NC4(C)CCC4)n2)CCC3)c1` [Compound 378, 2-[(2-{4-[(2S)-2-hydroxypropoxy]pyridin-2-yl}-5H,6H,7H-cyclopenta[d]pyrimidin-4-yl)(methyl)amino]-N-(1-methylcyclobutyl)acetamide] was tested. Which pEC50 did it give?
**A.** The pEC50 was 8.

**Q.** For `CN(CC(=O)Nc1ccc(F)cc1)c1nc(-c2cc3cn[nH]c3cn2)nc2c1CCC2` [Compound 289, N-(4-fluorophenyl)-2-[methyl(2-{1H-pyrazolo[3,4-c]pyridin-5-yl}-5H,6H,7H-cyclopenta[d]pyrimidin-4-yl)amino]acetamide], which pEC50 is on record?
**A.** The pEC50 was 7.5.

**Q.** Which pEC50 does the source give for `CN(c1nc(-c2ccccn2)nc2c1CCC2)C1CCN(c2ccccc2)C1=O` (centres unmarked) [Compound 95, 3-{methyl[2-(pyridin-2-yl)-5H,6H,7H-cyclopenta[d]pyrimidin-4-yl]amino}-1-phenylpyrrolidin-2-one] here?
**A.** Its pEC50 is 7.3.

**Q.** With `CC(=O)NCCOc1ccnc(-c2nc3c(c(N(C)CC(=O)Nc4cccc(F)c4)n2)CCC3)c1` [Compound 356, 2-({2-[4-(2-acetamidoethoxy)pyridin-2-yl]-5H,6H,7H-cyclopenta[d]pyrimidin-4-yl}(methyl)amino)-N-(3-fluorophenyl)acetamide] as the compound, how does the pEC50 read?
**A.** The pEC50 was 8.3.

**Q.** `CN(CC(=O)NC(C)(C)C)c1nc(-c2cc(OCC3(O)CCOCC3)ccn2)nc2c1CCC2` [Compound 405, N-tert-butyl-2-[(2-{4-[(4-hydroxyoxan-4-yl)methoxy]pyridin-2-yl}-5H,6H,7H-cyclopenta[d]pyrimidin-4-yl)(methyl)amino]acetamide] was tested. Which pEC50 did it give?
**A.** Its pEC50 is 8.3.

**Q.** With `CN(CC(=O)NC1CC1)c1nc(-c2cc(OCC(C)(C)O)ccn2)nc2c1CCC2` [Compound 398, N-cyclopropyl-2-({2-[4-(2-hydroxy-2-methylpropoxy)pyridin-2-yl]-5H,6H,7H-cyclopenta[d]pyrimidin-4-yl}(methyl)amino)acetamide] as the compound, how does the pEC50 read?
**A.** Its pEC50 is 8.1.

**Q.** With `Cc1ccc(-c2nc3c(c(N(C)CC(=O)NC(C)(C)C)n2)CCC3)nc1` [Compound 104, N-tert-butyl-2-{methyl[2-(5-methylpyridin-2-yl)-5H,6H,7H-cyclopenta[d]pyrimidin-4-yl]amino}acetamide] as the compound, how does the pEC50 read?
**A.** The pEC50 was 7.2.

**Q.** For `Cc1ccc(NC(=O)CN(C)c2nc(-c3cc(OCCO)ccn3)nc3c2C(C)(C)CC3)cn1` [Compound 331, 2-({2-[4-(2-hydroxyethoxy)pyridin-2-yl]-5,5-dimethyl-5H,6H,7H-cyclopenta[d]pyrimidin-4-yl}(methyl)amino)-N-(6-methylpyridin-3-yl)acetamide], which pEC50 is on record?
**A.** The pEC50 was 8.3.

**Q.** `CN(C)CC(C)(C)Oc1ccnc(-c2nc3c(c(N(C)CC(=O)NC(C)(C)C)n2)CCC3)c1` [Compound 407, N-tert-butyl-2-{[2-(4-{[1-(dimethylamino)-2-methylpropan-2-yl]oxy}pyridin-2-yl)-5H,6H,7H-cyclopenta[d]pyrimidin-4-yl](methyl)amino}acetamide] was tested. Which pEC50 did it give?
**A.** Its pEC50 is 6.6.

**Q.** How did the pEC50 turn out when `CNCCOc1ccnc(-c2nc3c(c(N(C)CC(=O)NC(C)(C)C)n2)CCC3)c1` [Compound 419, N-tert-butyl-2-[methyl(2-{4-[2-(methylamino)ethoxy]pyridin-2-yl}-5H,6H,7H-cyclopenta[d]pyrimidin-4-yl)amino]acetamide] was run?
**A.** The pEC50 was 7.6.

**Q.** Which pEC50 does the source give for `c1nc(-c2nc3c(c(N4CCCCCC4)n2)CCC3)cs1` [Compound 94, 1-[2-(1,3-thiazol-4-yl)-5H,6H,7H-cyclopenta[d]pyrimidin-4-yl]azepane] here?
**A.** Its pEC50 is 6.3.

**Q.** `CN1CCN(C(=O)CN(C)c2nc(-c3cc4ccccc4cn3)nc3c2CCC3)CC1` [Compound 256, 2-{[2-(isoquinolin-3-yl)-5H,6H,7H-cyclopenta[d]pyrimidin-4-yl](methyl)amino}-1-(4-methylpiperazin-1-yl)ethan-1-one] was tested. Which pEC50 did it give?
**A.** Its pEC50 is 6.6.

**Q.** `O=C(NC1CCCCC1)C1CN(c2nc(-c3ccccn3)nc3c2CCC3)C1` [Compound 29, N-cyclohexyl-1-[2-(pyridin-2-yl)-5H,6H,7H-cyclopenta[d]pyrimidin-4-yl]azetidine-3-carboxamide] was tested. Which pEC50 did it give?
**A.** Its pEC50 is 5.9.

**Q.** Which pEC50 does the source give for `Cc1ccc(NC(=O)CN(C)c2nc(-c3cc(OC4COC4)ccn3)nc3c2CCC3)cn1` [Compound 324, 2-[methyl({2-[4-(oxetan-3-yloxy)pyridin-2-yl]-5H,6H,7H-cyclopenta[d]pyrimidin-4-yl})amino]-N-(6-methylpyridin-3-yl)acetamide] here?
**A.** Its pEC50 is 7.4.

**Q.** With `CN(CC(=O)Nc1cccc(F)c1)c1nc(-c2cc(OCCN)ccn2)nc2c1CCC2` [Compound 293, 2-({2-[4-(2-aminoethoxy)pyridin-2-yl]-5H,6H,7H-cyclopenta[d]pyrimidin-4-yl}(methyl)amino)-N-(3-fluoropehnyl)acetamide] as the compound, how does the pEC50 read?
**A.** The pEC50 was 7.9.
